From patent publication US11266715B2, “C3A receptor agonists for use against ischemic brain injury, stroke, traumatic brain injury, spinal cord injury and neurodegenerative disorders” (priority 2016, dated 2022)

Key:
[1] = test system: mice subjected to neonatal HI injury; assay: Object recognition test after neonatal HI injury, 3 days intranasal treatment; format: in vivo, mouse
Procedure: In the short-term study (3 days of intranasal treatment), 3 groups of WT mice were used; animals subjected to neonatal HI injury and treated with either C3a (HI-C3a, n=18) or PBS (HI-PBS, n=18) and sham-operated animals treated with PBS (SHAM-PBS, n=19). These mice were tested in an open field and object recognition test (ORT) at P50-P54 and brains were collected at P55 (FIG. 8A).
Neonatal HI injury was induced on postnatal day 9 (P9), as previously described with modifications for mice (Hedtjärn et al., 2002; Rice et al., 1981; Sheldon et al., 1998). Mice were anesthetized with 3.5% isoflurane (Baxter Medical, Kista, Sweden) for induction and 1.5% thereafter, in 1:1 oxygen and nitrous oxide. The left common carotid artery was dissected and permanently ligated with a prolene suture (6.0). The incision was closed and infiltrated with lidocaine (Xylocain®, Astra Zeneca, Gothenburg, Sweden). Mice were returned to the dam for 1 hour and then placed in a chamber with humidified air at 36° C. for 10 min, then exposed to humidified 10% oxygen in nitrogen for 30 min at 36° C., and then kept in humidified air at 36° C. for 10 min before being returned to the dam. Sham animals were subjected to an incision in the neck on P9. These pups were also removed from the dam for the time duration that injured animals stayed in the chamber, but remained instead in a warming tray at 36° C. under normal oxygen conditions. At postnatal day 21 (P21) mice were weaned and group housed with same sex littermates.
Purified human C3a (Complement Technology Inc., Tyler, Tex., USA) was diluted in sterile phosphate buffered saline (PBS) to a concentration of 200 nM, and a total of 8 μl i.e. […] (4 μl/nostril; corresponding to ca. 2.56 μg/kg body weight) of peptide solution or PBS was given intranasally to awake and hand-restrained mice held in a supine position. Solutions were administered through a pipette tip, drop-wise in 2 μl-portions divided by 1 min intervals to allow for absorption. […] C3a or PBS was given every 24 hours for three (short-term study) or seven (long-term study) days starting 1 h after HI induction, i.e. between P9 and P11 or P9 and P15, respectively. Mice in each litter were randomly assigned to C3a or PBS treatment. Sham animals received PBS. The investigators carrying out behavioural studies and analysing data were blinded to treatment group.
The object recognition test is based on the innate preference of mice to explore a novel object rather than a familiar one. Therefore, animals that remember the familiar object will spend more time exploring the novel object (Leger et al., 2013). From 3 days before starting the test, mice were daily handled for 2 min to minimize the possible stress due the researcher interaction. All experiments were performed at the same time of the day, between 9 am and […], and inside of a plastic box of 50×50×50 cm dimensions where the light intensity was dim and equal in all parts of the apparatus. […] Prior to the familiarization session, during which two identical objects were introduced, mice were habituated to the apparatus for 10 min during 3 consecutive days. Activity on the first habituation day was recorded as an open field test to assess locomotor and exploratory activities. During the familiarization session, two identical 250 ml bottles filled with shredded paper were placed at an equal distance from the arena walls (approximately 5 cm). […]

[2] = test system: mice subjected to neonatal HI injury; assay: Histomorphologic evaluation of hippocampus volume after neonatal HI; format: in vivo, mouse; details: WT or C3aR−/− mice, regardless of treatment length, P51-55
Procedure: On P51 (long-term study) or P55 (short-term study), mice were deeply anesthetized with thiopental [Pentothal Sodium (0.01 ml/g body weight), Hospira, Ill., USA)] and transcardially perfused with 0.9% saline, followed by 4% paraformaldehyde (PFA) in 0.1 M PBS. Brains were removed and post-fixed in 4% PFA at 4° C. for 24 h followed by 70% ethanol for 24 h. Tissue was processed using an automatic tissue processor (SAKURA Tissue Tek VIP 3000, Tournai, Belgium) and embedded in paraffin. Brains were cut at room temperature into 8-μm serial coronal sections using a sliding microtome (Microm HM 450, Thermo Scientific, Massachusetts, USA), attached to silane coated slides and dried at RT.
For the histomorphologic evaluation, slides were incubated for 1 h at 65° C. and stained with haematoxylin and eosin. A wide-field microscope (Nikon Eclipse 80i; Nikon Instruments Inc., Tokyo, Japan) equipped with a color camera (Nikon DXM 1200F) was used to obtain images of brain sections 208 μm apart between −1.60 mm and −2.02 mm relative to Bregma; 3 sections/mouse. ImageJ 1.46r software was used to trace around the ipsilesional and contralesional hippocampus and hemisphere. Volumes were calculated according to the Cavalieri's principle, where V=ΣA×P×T (Svedin et al., 2007) and hippocampus volume/hemisphere volume ratio was calculated for each hemisphere.

microglia and astrocytes = details: in vitro; cited from earlier work

C3a: Purified human C3a peptide (Complement Technologies), C3a receptor agonist, amino acid sequence SEQ ID NO: 1
time exploring novel vs familiar object, long-term memory (24 h) ([1]; C3a treated mice p<0.05): significantly longer time exploring the novel compared to familiar object | exploratory behavior in the familiarization phase ([1]; intranasal C3a 3 days from 1 h post-HI): not altered | time exploring the novel object, short-term memory (6 h), vs PBS-treated mice post-HI ([1]; p<0.01): spent more time exploring the novel object | total object exploration time, long-term memory (24 h), vs PBS ([1]; p<0.05): longer | total object exploration time, short-term memory (6 h), vs PBS ([1]; p<0.05): longer total object exploration time | HI-induced loss of hippocampal tissue [2]: did not affect HI-induced loss of hippocampal tissue | NGF expression (microglia and astrocytes): induces upregulation of neural growth factor (NGF)
